Patent US20240366637A1, “Compounds inhibiting the synergistic carsinogenic effect of heavy metals in the presence of other carcinogens for use in the treatment of cancer” (priority 2021, published 2024)

Tests used:
[1] = tested on: Salmonella typhimurium TA1535; details: cadmium chloride 0.5 mM as pro-mutagen, N-Methyl-N-nitrosourea 180 μM as mutagen, candidate in various concentrations; mutant revertants on solid media
Method: The operating hypothesis was tested with an AMES test (as described e.g. by Mandel and Ryser, 1984) based platform using Salmonella typhimurium TA1535 (Standard Ames Tester Strain), cadmium chloride as pro-mutagen (0.5 mM final concentration during treatment), N-Methyl-N-nitrosourea as mutagen (180 μM final concentration during treatment) and EDTA, phytic acid (IP6) and Unithiol (i.e. DMPS) as candidate cadmium-promoted mutagenicity antidotes (in various concentrations, see FIGS. 1 and 2).
The experiment included the following steps: • 1. Healthy growth of bacterial cells • 2. Absorption of cadmium chloride (as a non-genotoxic metabolic poison) under conditions of reduced metabolism (bacteria chilled on ice) • 3. Addition of candidate antidotes and metabolic activation (fresh growth medium, 37° C.) • 4. Addition of N-methyl-N-nitrosourea under metabolically active conditions to fix mutations (fresh growth medium, 37° C.) • 5. Screening for mutant revertants on solid media (standard, second generation Petri dish-based AMES test)

Salmonella typhimurium = details: synergistic with two nitrosoamines; cited from earlier work

Structure (SMILES)	inhibition of mutagenicity-promoting synergy between cadmium and N-methyl-N-nitrosourea [1]	increase of the mutagenicity of two common nitrosoamines, greater than expected from simple additivity (Salmonella typhimurium)
O=C(O)CN(CCN(CC(=O)O)CC(=O)O)CC(=O)O [EDTA]	did not inhibit	–
O=S(=O)(O)CC(S)CS (stereo not shown) [Unithiol, 2,3-Dimercapto-1-propanesulfonic acid]	dose-dependent inhibition	–
[Cl][Cd][Cl] [cadmium chloride]	–	up to 30 fold
O=P(O)(O)O[C@H]1[C@H](OP(=O)(O)O)[C@@H](OP(=O)(O)O)[C@H](OP(=O)(O)O)[C@@H](OP(=O)(O)O)[C@H]1OP(=O)(O)O [phytic acid]	dose-dependent inhibition	–
